{
  "source": "patent US8198264B2",
  "about": "“Method for treating head and neck cancer” (National Cancer Center, priority 2006, dated 2012)",
  "origin": "cited, not measured here",
  "key": {"[1]": {"tested_on": "squamous cell head and neck cancer", "conditions": "regimen combined with radiotherapy, meta-analysis"}, "[2]": {"tested_on": "advanced/relapsed head and neck cancer", "conditions": "5-FU drug alone, continuous intravenous infusion"}},
  "data": [
    {"molecule": "O=c1[nH]cc(F)c(=O)[nH]1", "note": "[5-FU, 5-fluorouracil]", "values": [
      {"measurement": "odds ratio (add-on effect on survival)", "setting": "[1]", "result": 0.66},
      {"measurement": "response rate", "setting": "[2]", "result": 15, "unit": "%"}
    ]},
    {"molecule": "CO[C@@]12[C@H](COC(N)=O)C3=C(C(=O)C(C)=C(N)C3=O)N1C[C@@H]1N[C@@H]12", "note": "[Mitomycin C]", "values": [
      {"measurement": "odds ratio (add-on effect on survival)", "setting": "[1]", "result": 0.54}
    ]},
    {"molecule": "Bleomycin", "values": [
      {"measurement": "odds ratio (add-on effect on survival)", "setting": "[1]", "result": 0.80}
    ]}
  ]
}
